Assays:
Experiment in all cases: KINOMEscan scanMAX
Type in all cases: binding
MET(Y1235D) = target: T1, MET(Y1235D) (Homo sapiens, UniProt P08581, Y1235D); settings: read-out: Percent Control
T1 construct: purchased Eurofins Discovery (DiscoverX KINOMEscan scanMAX)
Procedure: (§1) The kinome-wide binding assay was performed by Eurofins Discovery using the scanMAX screening platform. More information can be found on the Eurofins Discovery Web site.

DLK = target: T2, DLK (Homo sapiens, UniProt Q12852); settings: read-out: Percent Control
T2 construct: purchased Eurofins Discovery (DiscoverX KINOMEscan scanMAX)
Procedure: as §1

PCTK2 = target: T3, PCTK2 (Homo sapiens, UniProt Q00537); settings: read-out: Percent Control
T3 construct: purchased Eurofins Discovery (DiscoverX KINOMEscan scanMAX)
Procedure: as §1

MAK = target: T4, MAK (Homo sapiens, UniProt P20794); settings: read-out: Percent Control
T4 construct: purchased Eurofins Discovery (DiscoverX KINOMEscan scanMAX)
Procedure: as §1

PCTK1 = target: T5, PCTK1 (Homo sapiens, UniProt Q00536); settings: read-out: Percent Control
T5 construct: purchased Eurofins Discovery (DiscoverX KINOMEscan scanMAX)
Procedure: as §1

CDK2 = target: T6, CDK2 (Homo sapiens, UniProt P24941); settings: read-out: Percent Control
T6 construct: purchased Eurofins Discovery (DiscoverX KINOMEscan scanMAX)
Procedure: as §1

VEGFR2 = target: T7, VEGFR2 (Homo sapiens, UniProt P35968); settings: read-out: Percent Control
T7 construct: purchased Eurofins Discovery (DiscoverX KINOMEscan scanMAX)
Procedure: as §1

ACVR2B = target: T8, ACVR2B (Homo sapiens, UniProt Q13705); settings: read-out: Percent Control
T8 construct: purchased Eurofins Discovery (DiscoverX KINOMEscan scanMAX)
Procedure: as §1

NEK11 = target: T9, NEK11 (Homo sapiens, UniProt Q8NG66); settings: read-out: Percent Control
T9 construct: purchased Eurofins Discovery (DiscoverX KINOMEscan scanMAX)
Procedure: as §1

TAK1 = target: T10, TAK1 (Homo sapiens, UniProt O43318); settings: read-out: Percent Control
T10 construct: purchased Eurofins Discovery (DiscoverX KINOMEscan scanMAX)
Procedure: as §1

PRKCI = target: T11, PRKCI (Homo sapiens, UniProt P41743); settings: read-out: Percent Control
T11 construct: purchased Eurofins Discovery (DiscoverX KINOMEscan scanMAX)
Procedure: as §1

HIPK1 = target: T12, HIPK1 (Homo sapiens, UniProt Q86Z02); settings: read-out: Percent Control
T12 construct: purchased Eurofins Discovery (DiscoverX KINOMEscan scanMAX)
Procedure: as §1

FLT3(ITD) = test system: FLT3(ITD)
Procedure: as §1

[1] = target: T13, RSK1(Kin.Dom.1-N-terminal) (Homo sapiens, UniProt Q15418); settings: read-out: Percent Control
T13 construct: RSK1(Kin.Dom.1-N-terminal); purchased Eurofins Discovery (DiscoverX KINOMEscan scanMAX)
Procedure: as §1

NEK7 = target: T14, NEK7 (Homo sapiens, UniProt Q8TDX7); settings: read-out: Percent Control
T14 construct: purchased Eurofins Discovery (DiscoverX KINOMEscan scanMAX)
Procedure: as §1

AURKC = target: T15, AURKC (Homo sapiens, UniProt Q9UQB9); settings: read-out: Percent Control
T15 construct: purchased Eurofins Discovery (DiscoverX KINOMEscan scanMAX)
Procedure: as §1

LKB1 = target: T16, LKB1 (Homo sapiens, UniProt Q15831); settings: read-out: Percent Control
T16 construct: purchased Eurofins Discovery (DiscoverX KINOMEscan scanMAX)
Procedure: as §1

GRK7 = target: T17, GRK7 (Homo sapiens, UniProt Q8WTQ7); settings: read-out: Percent Control
T17 construct: purchased Eurofins Discovery (DiscoverX KINOMEscan scanMAX)
Procedure: as §1

TSSK1B = target: T18, TSSK1B (Homo sapiens, UniProt Q9BXA7); settings: read-out: Percent Control
T18 construct: purchased Eurofins Discovery (DiscoverX KINOMEscan scanMAX)
Procedure: as §1

GCN2(Kin.Dom.2,S808G) = target: T19, GCN2(Kin.Dom.2,S808G) (Homo sapiens, UniProt Q9P2K8, S808G); settings: read-out: Percent Control
T19 construct: GCN2(Kin.Dom.2,S808G); purchased Eurofins Discovery (DiscoverX KINOMEscan scanMAX)
Procedure: as §1

PFTK1 = target: T20, PFTK1 (Homo sapiens, UniProt O94921); settings: read-out: Percent Control
T20 construct: purchased Eurofins Discovery (DiscoverX KINOMEscan scanMAX)
Procedure: as §1

PKNB(M.tuberculosis) = target: T21, PKNB(M.tuberculosis) (Mycobacterium tuberculosis, UniProt P9WI81); settings: read-out: Percent Control
T21 construct: purchased Eurofins Discovery (DiscoverX KINOMEscan scanMAX)
Procedure: as §1

ROCK2 = target: T22, ROCK2 (Homo sapiens, UniProt O75116); settings: read-out: Percent Control
T22 construct: purchased Eurofins Discovery (DiscoverX KINOMEscan scanMAX)
Procedure: as §1

GRK2 = target: T23, GRK2 (Homo sapiens, UniProt P25098); settings: read-out: Percent Control
T23 construct: purchased Eurofins Discovery (DiscoverX KINOMEscan scanMAX)
Procedure: as §1

ULK3 = target: T24, ULK3 (Homo sapiens, UniProt Q6PHR2); settings: read-out: Percent Control
T24 construct: purchased Eurofins Discovery (DiscoverX KINOMEscan scanMAX)
Procedure: as §1

LZK = target: T25, LZK (Homo sapiens, UniProt O43283); settings: read-out: Percent Control
T25 construct: purchased Eurofins Discovery (DiscoverX KINOMEscan scanMAX)
Procedure: as §1

OSR1 = target: T26, OSR1 (Homo sapiens, UniProt O95747); settings: read-out: Percent Control
T26 construct: purchased Eurofins Discovery (DiscoverX KINOMEscan scanMAX)
Procedure: as §1

PKN1 = target: T27, PKN1 (Homo sapiens, UniProt Q16512); settings: read-out: Percent Control
T27 construct: purchased Eurofins Discovery (DiscoverX KINOMEscan scanMAX)
Procedure: as §1

MAP3K1 = target: T28, MAP3K1 (Homo sapiens, UniProt Q13233); settings: read-out: Percent Control
T28 construct: purchased Eurofins Discovery (DiscoverX KINOMEscan scanMAX)
Procedure: as §1

LYN = target: T29, LYN (Homo sapiens, UniProt P07948); settings: read-out: Percent Control
T29 construct: purchased Eurofins Discovery (DiscoverX KINOMEscan scanMAX)
Procedure: as §1

CASK = target: T30, CASK (Homo sapiens, UniProt O14936); settings: read-out: Percent Control
T30 construct: purchased Eurofins Discovery (DiscoverX KINOMEscan scanMAX)
Procedure: as §1

CDKL5 = target: T31, CDKL5 (Homo sapiens, UniProt O76039); settings: read-out: Percent Control
T31 construct: purchased Eurofins Discovery (DiscoverX KINOMEscan scanMAX)
Procedure: as §1

IKK-beta = target: T32, IKK-beta (Homo sapiens, UniProt O14920); settings: read-out: Percent Control
T32 construct: purchased Eurofins Discovery (DiscoverX KINOMEscan scanMAX)
Procedure: as §1

T21 sequence (P9WI81 whole entry): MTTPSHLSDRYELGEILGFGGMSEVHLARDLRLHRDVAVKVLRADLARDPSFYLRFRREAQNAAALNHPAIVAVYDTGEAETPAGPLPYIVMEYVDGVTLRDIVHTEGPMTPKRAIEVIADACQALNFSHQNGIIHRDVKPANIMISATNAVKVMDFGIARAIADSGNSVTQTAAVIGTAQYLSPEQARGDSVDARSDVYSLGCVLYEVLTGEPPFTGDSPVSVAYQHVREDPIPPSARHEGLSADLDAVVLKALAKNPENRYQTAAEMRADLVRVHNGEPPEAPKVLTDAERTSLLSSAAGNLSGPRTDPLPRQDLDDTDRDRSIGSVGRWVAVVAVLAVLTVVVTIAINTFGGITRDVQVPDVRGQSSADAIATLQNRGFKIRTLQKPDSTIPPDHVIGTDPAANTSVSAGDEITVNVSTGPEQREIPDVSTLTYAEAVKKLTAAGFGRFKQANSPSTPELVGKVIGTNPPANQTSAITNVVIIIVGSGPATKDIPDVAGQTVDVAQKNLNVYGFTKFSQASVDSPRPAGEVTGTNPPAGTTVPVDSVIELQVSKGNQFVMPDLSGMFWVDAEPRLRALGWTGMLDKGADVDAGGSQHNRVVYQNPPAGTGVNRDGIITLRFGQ
T10 sequence (O43318 whole entry): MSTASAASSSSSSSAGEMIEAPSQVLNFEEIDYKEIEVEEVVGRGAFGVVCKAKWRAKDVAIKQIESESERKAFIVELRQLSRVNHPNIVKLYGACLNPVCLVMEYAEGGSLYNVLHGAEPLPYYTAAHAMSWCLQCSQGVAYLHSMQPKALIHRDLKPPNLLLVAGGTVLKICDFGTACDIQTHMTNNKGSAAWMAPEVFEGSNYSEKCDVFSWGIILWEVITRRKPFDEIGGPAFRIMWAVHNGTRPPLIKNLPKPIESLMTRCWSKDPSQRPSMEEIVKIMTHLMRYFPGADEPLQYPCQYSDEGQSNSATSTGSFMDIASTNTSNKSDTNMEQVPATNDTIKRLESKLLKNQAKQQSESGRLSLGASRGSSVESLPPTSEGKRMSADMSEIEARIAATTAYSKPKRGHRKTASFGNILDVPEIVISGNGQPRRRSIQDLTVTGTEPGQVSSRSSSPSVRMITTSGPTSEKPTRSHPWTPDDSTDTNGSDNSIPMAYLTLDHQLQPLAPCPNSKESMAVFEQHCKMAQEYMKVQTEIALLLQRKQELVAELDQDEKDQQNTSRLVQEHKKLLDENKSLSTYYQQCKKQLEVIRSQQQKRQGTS
T16 sequence (Q15831 whole entry): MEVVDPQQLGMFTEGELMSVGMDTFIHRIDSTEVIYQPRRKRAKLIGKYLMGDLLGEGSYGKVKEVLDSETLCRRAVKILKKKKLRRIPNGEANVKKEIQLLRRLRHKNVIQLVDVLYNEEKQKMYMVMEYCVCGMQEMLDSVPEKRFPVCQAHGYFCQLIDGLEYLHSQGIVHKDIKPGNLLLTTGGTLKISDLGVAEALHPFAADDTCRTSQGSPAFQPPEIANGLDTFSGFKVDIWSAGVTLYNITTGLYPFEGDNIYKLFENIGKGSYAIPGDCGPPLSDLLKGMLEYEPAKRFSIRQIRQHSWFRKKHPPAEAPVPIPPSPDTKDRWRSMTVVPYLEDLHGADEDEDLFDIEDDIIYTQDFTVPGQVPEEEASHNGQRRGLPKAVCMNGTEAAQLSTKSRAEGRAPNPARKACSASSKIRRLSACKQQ
T32 sequence (O14920 whole entry): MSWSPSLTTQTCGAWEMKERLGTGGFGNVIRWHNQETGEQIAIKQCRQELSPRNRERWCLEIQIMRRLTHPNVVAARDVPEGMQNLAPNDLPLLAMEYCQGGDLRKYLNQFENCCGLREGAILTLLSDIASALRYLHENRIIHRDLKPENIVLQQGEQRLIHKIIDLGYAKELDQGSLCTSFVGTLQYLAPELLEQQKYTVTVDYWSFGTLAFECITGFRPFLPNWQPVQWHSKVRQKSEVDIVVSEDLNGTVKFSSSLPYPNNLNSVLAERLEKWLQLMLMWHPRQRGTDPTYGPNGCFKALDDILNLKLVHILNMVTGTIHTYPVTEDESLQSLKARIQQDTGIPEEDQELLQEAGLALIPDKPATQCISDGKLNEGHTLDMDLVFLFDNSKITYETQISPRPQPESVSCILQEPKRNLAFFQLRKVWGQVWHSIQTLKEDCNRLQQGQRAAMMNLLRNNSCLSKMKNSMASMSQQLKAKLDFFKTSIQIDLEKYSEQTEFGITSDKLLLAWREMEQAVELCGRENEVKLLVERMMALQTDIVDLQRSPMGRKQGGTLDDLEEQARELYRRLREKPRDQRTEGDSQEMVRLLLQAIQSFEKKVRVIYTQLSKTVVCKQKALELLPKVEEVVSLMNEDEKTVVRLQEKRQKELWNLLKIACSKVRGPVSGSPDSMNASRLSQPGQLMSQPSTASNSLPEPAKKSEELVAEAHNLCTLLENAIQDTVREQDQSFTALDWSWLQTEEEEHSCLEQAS
T13 sequence (Q15418 1-391 limits assumed): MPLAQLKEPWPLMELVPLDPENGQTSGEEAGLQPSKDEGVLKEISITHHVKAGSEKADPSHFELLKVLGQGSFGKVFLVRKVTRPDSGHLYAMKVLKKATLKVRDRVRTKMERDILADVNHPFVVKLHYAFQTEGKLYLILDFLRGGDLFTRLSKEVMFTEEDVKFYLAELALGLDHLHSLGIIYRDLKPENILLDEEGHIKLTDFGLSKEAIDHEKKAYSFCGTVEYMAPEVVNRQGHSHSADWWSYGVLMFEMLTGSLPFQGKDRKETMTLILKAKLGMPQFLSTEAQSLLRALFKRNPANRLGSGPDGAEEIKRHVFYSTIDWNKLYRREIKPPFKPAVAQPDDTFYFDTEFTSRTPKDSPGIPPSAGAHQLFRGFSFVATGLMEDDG
T1 sequence (P08581 25-1390 Y1235D): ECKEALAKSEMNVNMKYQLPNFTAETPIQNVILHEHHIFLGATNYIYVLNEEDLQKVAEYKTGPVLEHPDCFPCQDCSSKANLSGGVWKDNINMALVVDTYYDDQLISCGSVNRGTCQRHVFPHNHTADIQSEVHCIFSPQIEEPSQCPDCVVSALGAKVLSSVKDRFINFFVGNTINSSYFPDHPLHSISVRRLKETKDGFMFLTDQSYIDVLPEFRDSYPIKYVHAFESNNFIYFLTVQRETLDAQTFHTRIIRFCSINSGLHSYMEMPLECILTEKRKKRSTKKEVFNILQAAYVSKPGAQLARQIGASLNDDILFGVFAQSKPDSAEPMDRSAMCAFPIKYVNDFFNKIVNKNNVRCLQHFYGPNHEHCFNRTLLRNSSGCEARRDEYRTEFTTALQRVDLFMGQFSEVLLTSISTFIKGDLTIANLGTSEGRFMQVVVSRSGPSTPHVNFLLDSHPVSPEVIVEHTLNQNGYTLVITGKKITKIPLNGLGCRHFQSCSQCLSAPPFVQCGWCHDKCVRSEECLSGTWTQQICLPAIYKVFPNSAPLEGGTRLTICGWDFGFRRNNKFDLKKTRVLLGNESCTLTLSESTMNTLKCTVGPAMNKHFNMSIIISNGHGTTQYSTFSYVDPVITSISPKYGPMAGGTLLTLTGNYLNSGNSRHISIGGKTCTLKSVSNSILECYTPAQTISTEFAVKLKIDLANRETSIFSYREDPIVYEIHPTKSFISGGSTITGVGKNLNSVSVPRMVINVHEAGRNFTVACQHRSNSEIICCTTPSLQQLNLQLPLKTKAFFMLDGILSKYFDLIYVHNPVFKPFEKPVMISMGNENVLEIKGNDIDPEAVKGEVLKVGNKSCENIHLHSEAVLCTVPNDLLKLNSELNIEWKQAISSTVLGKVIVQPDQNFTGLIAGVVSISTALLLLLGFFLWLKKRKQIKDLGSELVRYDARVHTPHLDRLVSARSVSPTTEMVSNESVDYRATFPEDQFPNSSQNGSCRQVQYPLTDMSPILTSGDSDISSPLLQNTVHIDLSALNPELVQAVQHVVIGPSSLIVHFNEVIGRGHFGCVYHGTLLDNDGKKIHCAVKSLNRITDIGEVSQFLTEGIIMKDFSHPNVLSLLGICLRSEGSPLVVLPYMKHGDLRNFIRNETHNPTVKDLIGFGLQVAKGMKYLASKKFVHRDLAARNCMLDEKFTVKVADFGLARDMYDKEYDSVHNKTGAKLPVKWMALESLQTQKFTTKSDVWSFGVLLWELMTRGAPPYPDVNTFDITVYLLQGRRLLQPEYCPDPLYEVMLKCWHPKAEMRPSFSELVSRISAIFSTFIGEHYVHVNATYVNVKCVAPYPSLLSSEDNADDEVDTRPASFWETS
T8 sequence (Q13705 19-512): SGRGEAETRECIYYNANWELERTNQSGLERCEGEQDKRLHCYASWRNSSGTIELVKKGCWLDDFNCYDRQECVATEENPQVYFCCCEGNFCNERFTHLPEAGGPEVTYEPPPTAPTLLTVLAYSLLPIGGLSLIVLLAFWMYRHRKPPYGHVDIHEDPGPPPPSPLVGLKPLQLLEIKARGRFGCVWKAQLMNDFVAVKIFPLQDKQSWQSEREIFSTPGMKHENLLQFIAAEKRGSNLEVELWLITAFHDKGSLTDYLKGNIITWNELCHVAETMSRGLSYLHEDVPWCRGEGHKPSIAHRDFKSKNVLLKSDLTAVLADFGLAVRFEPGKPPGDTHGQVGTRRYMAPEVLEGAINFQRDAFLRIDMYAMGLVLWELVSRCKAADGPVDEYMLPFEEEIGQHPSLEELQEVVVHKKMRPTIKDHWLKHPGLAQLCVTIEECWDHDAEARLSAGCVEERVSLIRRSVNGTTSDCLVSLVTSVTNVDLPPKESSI
T18 sequence (Q9BXA7 whole entry): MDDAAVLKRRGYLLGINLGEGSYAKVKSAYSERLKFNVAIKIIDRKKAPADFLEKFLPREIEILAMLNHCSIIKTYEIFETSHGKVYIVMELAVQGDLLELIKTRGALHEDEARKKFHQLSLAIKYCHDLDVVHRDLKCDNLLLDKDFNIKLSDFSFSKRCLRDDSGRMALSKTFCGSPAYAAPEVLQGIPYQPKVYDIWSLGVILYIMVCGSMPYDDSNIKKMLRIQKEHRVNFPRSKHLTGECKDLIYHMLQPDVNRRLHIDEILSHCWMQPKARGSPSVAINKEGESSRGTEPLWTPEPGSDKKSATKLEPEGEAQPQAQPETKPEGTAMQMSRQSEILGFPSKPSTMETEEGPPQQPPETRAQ

**Q.** Which results are given for `Cc1cc(Nc2ccc(F)c(CC3(C(=O)N4CCC(F)(CN5CCN(c6ccc(N7CCC(=O)NC7=O)cn6)CC5)CC4)CCN(Cc4cccc(Cl)c4F)CC3)n2)n[nH]1` [SK5527]?
**A.** remaining binding at 0.1 µM (MET(Y1235D); 100 nM): 86%; remaining binding at 1 µM (MET(Y1235D); 1000 nM): 100%; remaining binding at 0.1 µM (DLK; 100 nM): 71%; remaining binding at 1 µM (DLK; 1000 nM): 55%; remaining binding at 0.1 µM (PCTK2; 100 nM): 100%; remaining binding at 1 µM (PCTK2; 1000 nM): 100%; remaining binding at 0.1 µM (MAK; 100 nM): 100%; remaining binding at 1 µM (MAK; 1000 nM): 100%; remaining binding at 0.1 µM (PCTK1; 100 nM): 89%; remaining binding at 1 µM (PCTK1; 1000 nM): 88%; remaining binding at 0.1 µM (CDK2; 100 nM): 100%; remaining binding at 1 µM (CDK2; 1000 nM): 94%; remaining binding at 0.1 µM (VEGFR2; 100 nM): 85%; remaining binding at 1 µM (VEGFR2; 1000 nM): 65%; remaining binding at 0.1 µM (ACVR2B; 100 nM): 100%; remaining binding at 1 µM (ACVR2B; 1000 nM): 87%; remaining binding at 0.1 µM (NEK11; 100 nM): 100%; remaining binding at 1 µM (NEK11; 1000 nM): 100%; remaining binding at 0.1 µM (TAK1; 100 nM): 74%; remaining binding at 1 µM (TAK1; 1000 nM): 100%; remaining binding at 0.1 µM (PRKCI; 100 nM): 92%; remaining binding at 1 µM (PRKCI; 1000 nM): 76%; remaining binding at 0.1 µM (HIPK1; 100 nM): 81%; remaining binding at 1 µM (HIPK1; 1000 nM): 92%; Percent Control (FLT3(ITD); 100 nM): 89%; Percent Control (FLT3(ITD); 1000 nM): 94%; remaining binding at 0.1 µM ([1]; 100 nM): 100%; remaining binding at 1 µM ([1]; 1000 nM): 100%; remaining binding at 0.1 µM (NEK7; 100 nM): 74%; remaining binding at 1 µM (NEK7; 1000 nM): 73%; remaining binding at 0.1 µM (AURKC; 100 nM): 100%; remaining binding at 1 µM (AURKC; 1000 nM): 85%; remaining binding at 0.1 µM (LKB1; 100 nM): 82%; remaining binding at 1 µM (LKB1; 1000 nM): 83%; remaining binding at 0.1 µM (GRK7; 100 nM): 100%; remaining binding at 1 µM (GRK7; 1000 nM): 56%; remaining binding at 0.1 µM (TSSK1B; 100 nM): 100%; remaining binding at 1 µM (TSSK1B; 1000 nM): 100%; remaining binding at 0.1 µM (GCN2(Kin.Dom.2,S808G); 100 nM): 98%; remaining binding at 1 µM (GCN2(Kin.Dom.2,S808G); 1000 nM): 100%; remaining binding at 0.1 µM (PFTK1; 100 nM): 100%; remaining binding at 1 µM (PFTK1; 1000 nM): 95%; remaining binding at 0.1 µM (PKNB(M.tuberculosis); 100 nM): 93%; remaining binding at 1 µM (PKNB(M.tuberculosis); 1000 nM): 94%; remaining binding at 0.1 µM (ROCK2; 100 nM): 100%; remaining binding at 1 µM (ROCK2; 1000 nM): 45%; remaining binding at 0.1 µM (GRK2; 100 nM): 100%; remaining binding at 1 µM (GRK2; 1000 nM): 100%; remaining binding at 0.1 µM (ULK3; 100 nM): 85%; remaining binding at 1 µM (ULK3; 1000 nM): 86%; remaining binding at 0.1 µM (LZK; 100 nM): 92%; remaining binding at 1 µM (LZK; 1000 nM): 90%; remaining binding at 0.1 µM (OSR1; 100 nM): 100%; remaining binding at 1 µM (OSR1; 1000 nM): 97%; remaining binding at 0.1 µM (PKN1; 100 nM): 100%; remaining binding at 1 µM (PKN1; 1000 nM): 89%; remaining binding at 0.1 µM (MAP3K1; 100 nM): 93%; remaining binding at 1 µM (MAP3K1; 1000 nM): 60%; remaining binding at 0.1 µM (LYN; 100 nM): 78%; remaining binding at 1 µM (LYN; 1000 nM): 94%; remaining binding at 0.1 µM (CASK; 100 nM): 93%; remaining binding at 1 µM (CASK; 1000 nM): 87%; remaining binding at 0.1 µM (CDKL5; 100 nM): 94%; remaining binding at 1 µM (CDKL5; 1000 nM): 81%; remaining binding at 0.1 µM (IKK-beta; 100 nM): 100%; remaining binding at 1 µM (IKK-beta; 1000 nM): 73%
